Data from article PMC10289985, “Brigatinib pharmacokinetics in patients with chronic hepatic impairment” (Investigational New Drugs, 2023).
Like-named read-outs stand apart in the source and are kept apart here.

Tests used:
TKI-naive ALK+ NSCLC = tested on: TKI-naive ALK+ NSCLC; parameters: method as in PMID 34537440; conditions: 95% CI 0.35–0.66; P < 0.0001; cited from earlier work
[1] = parameters: method as in PMID 32816246; conditions: single oral 180 mg [14C]-brigatinib; cited from earlier work
CYP3A = tested on: CYP3A; parameters: method as in PMID 31287236; conditions: cited from earlier work
[2] = tested on: ALK-positive metastatic NSCLC; parameters: method as in PMID 36065449; conditions: 180 mg QD with 7-day lead-in at 90 mg QD; median follow-up 28.3 months; cited from earlier work
[3] = tested on: cytochrome P450 (CYP) 2C8 and CYP3A4; parameters: method as in ref 13 = [13]; 13. Alunbrig [package insert] (2022) Takeda Pharmaceuticals America, Inc., Lexington, MA; conditions: in vitro; cited from earlier work
[4] = Safety and adverse event monitoring after a single 90-mg dose; format: in vivo, human
Method: All enrolled participants who received brigatinib were included in the safety population. Adverse event (AE) monitoring occurred throughout the study. Physical examination was conducted at screening with additional symptom-directed physical examinations performed at the investigator’s discretion on study Days −1 and 9. Height, weight, and BMI were recorded at screening. Vital signs were recorded at screening; on Day −1; predose and at 0.5, 1, 2, 3, 4, 6, 8, 12, 24, 36, 48, 72, 96, 120, 144, and 168 hours postdose; and on Day 9. Electrocardiograms were conducted at screening, on Day −1, predose and at 3 and 48 hours postdose, and on Day 9. Clinical laboratory evaluations were performed at screening and on Days −1 and 9 and were reviewed by the investigator for clinical significance.

CYP2C8 = tested on: CYP2C8; parameters: method as in PMID 31287236; conditions: cited from earlier work
[5] = parameters: method as in PMID 27836716, PMID 29915924; conditions: cited from earlier work
[6] = Plasma protein binding of brigatinib by rapid equilibrium dialysis of participants' plasma samples; format: in vitro ADME, human; conditions: for fraction unbound: human, plasma, oral, 90 mg, pooled 2, 8, 24 h postdose
Method: Blood samples were collected before brigatinib administration (predose) and at 0.5, 1, 1.5, 2, 2.5, 3, 4, 6, 8, 12, 24, 36, 48, 72, 96, 120, 144, 168, and 192 hours following brigatinib administration to measure brigatinib plasma concentrations. Samples to assess brigatinib plasma protein binding were collected at 2, 8, and 24 hours postdose.
Free fractions of brigatinib in plasma samples were determined as previously reported. Briefly, free brigatinib was separated from protein-bound brigatinib by rapid equilibrium dialysis of plasma samples against warm (37° C) phosphate-buffered saline using the Thermo Scientific Single-Use Rapid Equilibrium Dialysis kit (Thermo Fisher Scientific, Waltham, MA) according to the manufacturer’s specifications. […] After incubation, samples were analyzed for brigatinib concentrations using liquid chromatography with tandem mass spectrometry as previously reported using a dual-range assay with a lower limit of quantitation of 0.100 ng/mL and an upper limit of quantitation of […].
The PK-evaluable population was defined as participants who received the single dose of brigatinib, had no major protocol deviations that affected the PK analyses, and had sufficient data to calculate PK parameters. Individual participant brigatinib plasma concentration-time profiles were analyzed via noncompartmental analysis using Phoenix WinNonLin version 6.4 (Certara, Inc., Princeton, NJ) to calculate plasma PK parameters. Plasma PK parameters calculated for brigatinib included maximum observed plasma concentration (Cmax), time to first maximum observed plasma concentration (Tmax), area under the plasma concentration-time curve from time 0 to the time of the last measurable concentration (AUC0−last), area under the plasma concentration-time curve from time 0 to infinity (AUC0−∞), terminal elimination half-life (t1/2), apparent oral clearance (CL/F), and apparent volume of distribution during the terminal disposition phase (Vz/F). The fraction of unbound brigatinib in plasma was calculated using the following formula: % free (unbound) = [free brigatinib concentration measured in buffer after dialysis] / [total brigatinib concentration measured in plasma] × 100. Unbound brigatinib PK parameters were derived from the following formula (except for the unbound CL/F and unbound Vz/F, which were calculated as total CL/F or total Vz/F divided by the individual participant’s overall mean fraction unbound): unbound PK parameter = (PK parameter based on total concentrations) × (individual participant’s overall mean fraction unbound value).

COc1cc(N2CCC(N3CCN(C)CC3)CC2)ccc1Nc1ncc(Cl)c(Nc2ccccc2P(C)(C)=O)n1 [brigatinib]
PFS hazard ratio, brigatinib compared with crizotinib (TKI-naive ALK+ NSCLC): 0.48 | administered dose recovered in the feces [1]: approximately 65% | administered dose recovered in the urine [1]: 25% | fecal recovery as unchanged brigatinib [1]: 41% | urinary recovery as unchanged brigatinib [1]: 86% | decrease of AUC0−∞ with the strong CYP3A inducer rifampicin (CYP3A): 80% | increase of AUC0−∞ with the strong CYP3A inhibitor itraconazole (CYP3A): 101% | IRC-assessed confirmed objective response rate (ORR) [2]: 56% | IRC-assessed median progression-free survival (PFS) [2]: 16.7 months | metabolizing enzymes [3]: primarily metabolized by cytochrome P450 (CYP) 2C8 and CYP3A4 | number of TEAEs ([4]; Child-Pugh A group): 2 events | participants with one or more TEAEs ([4]; Child-Pugh A group (n=6)): 2 participants | number of TEAEs ([4]; Child-Pugh B group): 13 events | participants with moderate TEAEs possibly related to the study drug ([4]; Child-Pugh B group): Two | participants with one or more TEAEs ([4]; Child-Pugh B group (n=6)): 4 participants | number of TEAEs ([4]; Child-Pugh C group): 2 events | participants with one or more TEAEs ([4]; Child-Pugh C group (n=6)): 2 participants | participants with one or more treatment-emergent adverse events (TEAEs) ([4]; all 27 study participants, single 90 mg): 13 participants | participants with constipation ([4]; all participants): 2 participants | participants with dyspnea ([4]; all participants): 2 participants | participants with headache ([4]; all participants): 4 participants | participants with hypertension ([4]; all participants): 2 participants | participants with nausea ([4]; all participants): 2 participants | changes in laboratory values or electrocardiogram measurements ([4]; during the study): No clinically significant changes | discontinuation due to an AE ([4]; during the study): no participants discontinued | serious AEs ([4]; during the study): no serious AEs | number of TEAEs ([4]; healthy participant group): 5 events | participants with one or more TEAEs ([4]; healthy participant group (n=9)): 5 participants | tolerability ([4]; single 90-mg dose, healthy participants and participants with hepatic impairment): well tolerated | effect of a strong CYP2C8 inhibitor on brigatinib systemic exposure (CYP2C8): no clinically relevant effect | mean plasma terminal elimination half-life [5]: approximately 25 hours | concentration dependence of plasma protein binding ([6]; 2, 8 and 24 h postdose within each hepatic function group): not concentration-dependent | mean fraction unbound, Child-Pugh C relative to healthy participants ([6]; Child-Pugh C vs healthy participants): 2.7 fold | fraction unbound ([6]; Child-Pugh A, mild hepatic impairment (n=6), read-out: mean fraction unbound (free) in plasma): 0.111 | fraction unbound ([6]; Child-Pugh A, read-out: pooled mean ± SD fraction unbound (converted)): 0.111 | fraction unbound ([6]; Child-Pugh B, moderate hepatic impairment (n=6), read-out: mean fraction unbound (free) in plasma): 0.108 | fraction unbound ([6]; Child-Pugh B, read-out: pooled mean ± SD fraction unbound (converted)): 0.108 | fraction unbound ([6]; Child-Pugh C, severe hepatic impairment (n=6), read-out: mean fraction unbound (free) in plasma): 0.231 | fraction unbound ([6]; Child-Pugh C, read-out: pooled mean ± SD fraction unbound (converted)): 0.231 | fraction unbound ([6]; healthy participants, normal hepatic function (n=9), read-out: mean fraction unbound (free) in plasma): 0.085 | fraction unbound ([6]; healthy participants, read-out: pooled mean ± SD fraction unbound (converted)): 0.085
